In doi:10.1101/2024.12.09.627564, “Cannabinoid inhibition of mechanosensitive K^+ channels” (bioRxiv, 2024):

What was measured:
TRAAKG158D = biological target: T1, TRAAKG158D (Homo sapiens, UniProt Q9NYG8, G132D); assay: Excised patch recording of TRAAK mutant G158D; assay type: biochemical
T1 construct: The transcribed messages encode H. sapiens TRAAK amino acids 1–393; expressed in transfected cells; host or cells: Xenopus laevis oocytes, cRNA injection
T1 sequence (Q9NYG8 1-393 G132D): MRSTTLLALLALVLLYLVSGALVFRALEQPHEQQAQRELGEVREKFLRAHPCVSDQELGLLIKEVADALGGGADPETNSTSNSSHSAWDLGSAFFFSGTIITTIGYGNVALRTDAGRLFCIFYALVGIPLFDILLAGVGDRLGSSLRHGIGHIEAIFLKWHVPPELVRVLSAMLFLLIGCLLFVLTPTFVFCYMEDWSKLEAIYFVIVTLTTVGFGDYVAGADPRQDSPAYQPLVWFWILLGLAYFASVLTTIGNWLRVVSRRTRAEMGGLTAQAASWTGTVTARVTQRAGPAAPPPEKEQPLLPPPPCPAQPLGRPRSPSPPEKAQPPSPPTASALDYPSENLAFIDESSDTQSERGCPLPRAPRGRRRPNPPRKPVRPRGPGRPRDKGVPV
Source text: (§1) For patch clamp recording from Xenopus oocytes, genes encoding full-length Homo sapiens TRAAK (UniProt Q9NYG8–2), TREK-1 (UniProt O95069), and TREK-2 (UniProt P57789) were codon optimized for eukaryotic expression, synthesized (Genewiz), and cloned into a modified pGEMHE vector using Xho1 and EcoR1 restriction sites. The transcribed messages encode H. sapiens TRAAK amino acids 1–393, TREK-1 amino acids 1–426, or TREK-2 amino acids 1–538 with an additional three amino acids (SNS) at the C terminus. TRAAK mutants were introduced by polymerase chain reaction (PCR). Linearized DNA was transcribed in vitro using T7 polymerase. Complementary RNA (0.1 to 10 ng for TRAAK, TREK-1, TREK-2, and mutants) in 50 nL H2O was injected into Xenopus laevis oocytes extracted from anesthetized frogs. Currents were recorded at 25 °C from inside-out patches excised from oocytes 1 to 5 d after RNA injection. The pipette solution contained 15 mM KCl, 135 mM NaCl, 2 mM MgCl2, and 10 mM HEPES (pH = 7.4 with KOH) and the bath solution contained 150 mM KCl and 10 mM HEPES (pH = 7.1 with KOH). Borosilicate glass pipettes were pulled to 2–5 MΩ resistance.
(§2) Patches were evaluated with voltage-step protocols to confirm TRAAK expression and minimal non-specific leak based on reversal potential. Currents were recorded using an Axopatch 200B amplifier (Molecular Devices) at a bandwidth of 1 kHz and digitized with an Digidata 1550B (Molecular Devices) at 100–500 kHz using pClamp10.7 software. Pressure was applied with a second-generation high-speed pressure clamp device (HSPC-2-SB, ALA Scientific Instruments). Aggregated data were from patches from n ≥ 2 different cells on different days. No relevant differences were observed between patches from different cells. In an effort to minimize variability associated with differences in resting membrane tension, we targeted patches with low basal curvature and low resting channel activity and ensured measured pressure difference across the patch was as close to zero as possible at rest to prevent mechanical activation of channels. Data were analyzed using Clampfit 10.7, Excel, and Graphpad Prism software. For voltage families, the data were decimated 100x and plotted in Prism. […]
(§3) To avoid cannabinoid absorption to plastic, cannabinoid solutions were made in glass vials and diluted by weight, perfusion was performed using glass tubing pulled from borosilicate glass Pasteur pipettes (Fisherbrand, Cat# 13–678-20C), and recordings were performed in glass chambers. Channel activity was continuously recorded during perfusion steps. […]
The effects of cannabinoids on channel activity were quantified by the reduction in channel current evoked at 0 mV during a gap-free recording or during 200 ms long voltage families with steps ranging from −100 to +100 mV. […]

BK = system: BK; design: method as in PMID 38708937; conditions: inhibition; cited from earlier work
[1] = as measured in plasma or estimated in brain tissue; cited from earlier work
Homo sapiens TREK-2 = biological target: T2, Homo sapiens TREK-2 (Homo sapiens, UniProt P57789); assay: Excised inside-out patch recording of TREK-2 from Xenopus oocytes; assay type: biochemical
T2 construct: TREK-2 amino acids 1–538; expressed in transfected cells; host or cells: Xenopus laevis oocytes, cRNA injection
T2 sequence (P57789 1-538): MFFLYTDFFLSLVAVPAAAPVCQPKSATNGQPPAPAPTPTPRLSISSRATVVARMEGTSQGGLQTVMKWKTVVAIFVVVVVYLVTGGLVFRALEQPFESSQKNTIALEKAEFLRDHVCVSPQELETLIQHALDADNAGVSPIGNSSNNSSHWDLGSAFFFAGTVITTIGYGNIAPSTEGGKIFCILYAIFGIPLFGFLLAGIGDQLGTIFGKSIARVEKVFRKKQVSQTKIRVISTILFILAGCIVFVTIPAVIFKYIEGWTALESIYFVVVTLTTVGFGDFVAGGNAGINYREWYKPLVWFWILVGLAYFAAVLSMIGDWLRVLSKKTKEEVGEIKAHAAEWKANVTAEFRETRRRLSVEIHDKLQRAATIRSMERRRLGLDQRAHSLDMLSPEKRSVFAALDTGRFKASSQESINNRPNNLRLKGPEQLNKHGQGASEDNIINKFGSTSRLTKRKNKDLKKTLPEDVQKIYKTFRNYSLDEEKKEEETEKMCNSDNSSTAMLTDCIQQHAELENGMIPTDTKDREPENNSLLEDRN
Source text: as §1, with “The pipette solution contained 15 mM KCl, 135 mM NaCl, 2 mM MgCl2, and 10 mM HEPES (pH = 7.4 with KOH) and the bath solution contained 150 mM KCl and 10 mM HEPES (pH = 7.1 with KOH). Borosilicate glass pipettes were pulled to 2–5 MΩ resistance.” left out
as §2, with “Pressure was applied with a second-generation high-speed pressure clamp device (HSPC-2-SB, ALA Scientific Instruments). Aggregated data were from patches from n ≥ 2 different cells on different days. No relevant differences were observed between patches from different cells.” left out, “software.” for “software. For voltage families, the data were decimated 100x and plotted in Prism.”
as §3

GPR55 = system: GPR55; design: method as in PMID 17876302, PMID 29669714, PMID 36787750; conditions: negative modulation of GPR55; cited from earlier work
[2] = system: voltage-gated sodium channels; conditions: cited from earlier work

Q: Which EC50 (TRAAKG158D) does the source give for `C=C(C)[C@@H]1CCC(C)=C[C@H]1c1c(O)cc(CCCCC)cc1O` [CBD, Cannabidiol] here?
A: Its EC50 is 1.03 ± 0.22 µM.

Q: And the IC50 (TRAAKG158D)?
A: Its IC50 is 1.03 ± 0.22 µM.

Q: What about the “fold less sensitive than wild-type TRAAK” value (TRAAKG158D; G158D vs wild-type) of the same molecule?
A: The value was ~ 7.1 fold.

Q: What about the inhibition at 10 µM (TRAAKG158D; highest CBD concentration tested, 10 μM, read-out: inhibition plateauing at % of initial current) of the same molecule?
A: The inhibition at 10 µM was ~45%.

Q: What about the IC50 (BK) of the same molecule?
A: The IC50 was 0.28 µM.

Q: What about the “concentration in treated patients” value [1] of the same molecule?
A: The value was 50 to 100 nM.

Q: What about the IC50 (Homo sapiens TREK-2) of the same molecule?
A: The IC50 was 1.3 µM.

Q: What about the Hill-coefficient (Homo sapiens TREK-2; TREK-2 dose-response) of the same molecule?
A: Its Hill-coefficient is 3.8.

Q: What about the “fold less sensitive than TRAAK” value (Homo sapiens TREK-2; TREK-2 vs TRAAK) of the same molecule?
A: The value was ~ 10 fold.

Q: And the IC50 (GPR55)?
A: Its IC50 is ~0.5 µM.

Q: And the IC50 [2]?
A: The IC50 was 2 to 10 µM.
